In data set [1] the test system is MAC15A (murine adenocarcinoma colon). The experiment in a line: Anti-tumour activity against MAC15A ascites tumour, survival T/C%. In kind it is in vivo, mice. To be noted: for T/C%: mouse, in vivo; for response vs control in vivo at 100 mg/kg: Mus musculus, MAC15A, read-out: T/C%.
Data set [2] has as its system HIV-1RF. The experiment in a line: Acute Infection Assay, HIV core antigen ELISA in C8166 cells. Type of data set: cell-based, human immunodeficiency virus.
The nature of data set [3]: in vitro. To be noted: CC50 (Toxicity).
Setting [4] is: Human immunodeficiency virus 1, C8166, read-out: IC50 (Antiviral).
Where [5] appears, read: Human immunodeficiency virus 1, C8166, Table 11.4, Against HIV-1RF, single assays, unit inferred, read-out: IC50 (Antiviral).

pIC50: −log10 of the molar value. Read-outs that look alike come from different tables or passages of the source.

In turn, “2-glutathionyl-3,5-dinitrobenzenesulfonic acid” showed a T/C% in data set [1] (ip) of 242%.

As to `Nc1c([N+](=O)[O-])cccc1[N+](=O)[O-]` [2,6-dinitroaniline], in data set [1] (ip), the T/C% worked out at 214%.

On to `Cc1ccc(S(=O)(=O)O)cc1[N+](=O)[O-]` [3-nitro-4-methylbenzenesulfonic acid], for which the response vs control in vivo at 100 mg/kg in data set [1] (ip) was 229%.

Take `O=[N+]([O-])c1c(Cl)cc(Cl)c(Cl)c1Cl` [Compound E13, 2,3,4,6-tetrachloronitrobenzene]: the pIC50 in data set [2] (setting [4]) was below 3.70. The cytotoxic concentration (CC50) in data set [3] worked out at 80 µM.

`O=[N+]([O-])c1ccc(Cl)c([N+](=O)[O-])c1` [Compound E2, 1-chloro-2,4-dinitrobenzene]: the response vs control in vivo at 100 mg/kg in data set [1] (ip) turned out to be 188%. In addition, in data set [2], the “SI (Selectivity Index)” value is 3. The negative logarithm of the IC50 (pIC50) in data set [2] (setting [4]) was 5.40. Also, in data set [3], the half-maximal cytotoxic concentration (CC50) came to 13 µM.

On to `O=S(=O)(O)c1ccc(Cl)cc1` [Compound S5, 4-chlorobenzenesulfonic acid], for which the response vs control in vivo at 100 mg/kg in data set [1] (median survival, test vs solvent control, 100 mg kg^-1 ip per day, schedule days 1,2,3,4,5) was determined as 443%. The pIC50 in data set [2] (setting [5]) is below 3.70. The cytotoxic concentration (CC50) in data set [3] is above 200 µM.

Take `O=[N+]([O-])c1c(Cl)c(Cl)c(Cl)c(Cl)c1Cl` [Compound E14, pentachloronitrobenzene]: the negative logarithm of the IC50 (pIC50) in data set [2] (setting [4]) was below 3.70. In addition, in data set [3], the half-maximal cytotoxic concentration (CC50) was above 200 µM.

In the case of `O=C(O)c1cc([N+](=O)[O-])cc([N+](=O)[O-])c1` [3,5-dinitrobenzoic acid], the T/C% in data set [1] (ip) is 100%.

For the compound `O=[N+]([O-])c1cc(Cl)c(Cl)cc1[N+](=O)[O-]` [Compound E3, 1,2-dichloro-4,5-dinitrobenzene], the T/C% in data set [1] (ip) is listed as 171%. Further, the “SI (Selectivity Index)” value in data set [2] was found to be 1.5. Further, in data set [2] (read-out: IC50 (Antiviral)), the negative-log IC50 (pIC50) is 5.40. The compound also had a CC50 in data set [3] of 7 µM.

In the case of `COc1ccc(Cl)c([N+](=O)[O-])c1` [4-chloro-3-nitroanisole], the response vs control in vivo at 100 mg/kg in data set [1] (ip) came to 100%.

For the compound `Nc1ccc([N+](=O)[O-])cc1[N+](=O)[O-]` [2,4-dinitroaniline], the T/C% in data set [1] (ip) was determined as 100%.

Consider `O=[N+]([O-])c1cc(Cl)cc(Cl)c1[N+](=O)[O-]` [Compound E9, 1,5-dichloro-2,3-dinitrobenzene], for which, in data set [1] (ip), the response vs control in vivo at 100 mg/kg amounted to 386%.

On to `O=C(O)c1ccc([N+](=O)[O-])cc1[N+](=O)[O-]` [2,4-dinitrobenzoic acid], for which the T/C% in data set [1] (ip) is given as 100%.

`Nc1c(Cl)cc([N+](=O)[O-])cc1[N+](=O)[O-]` [6-chloro-2,4-dinitroaniline] returned a T/C% in data set [1] (ip) of 87%.

In data set [1] (ip), 4-glutathionyl-3,5-dinitrobenzene gave a T/C% of 113%.

Consider `NC(=O)c1cc([N+](=O)[O-])c(N)c([N+](=O)[O-])c1` [4-amino-3,5-dinitrobenzamide], for which the response vs control in vivo at 100 mg/kg in data set [1] (ip, 24 h) was found to be 100%.

As to `O=[N+]([O-])c1cc(S(=O)(=O)O)ccc1Cl` [Compound S4, 4-chloro-3-nitrobenzenesulfonic acid], the response vs control in vivo at 100 mg/kg in data set [1] (ip) is 140%. The negative logarithm of the IC50 (pIC50) in data set [2] (setting [5]) is below 3.70. In addition, the CC50 in data set [3] is above 200 µM.

`O=[N+]([O-])c1cc(Cl)c(Cl)cc1Cl` [Compound E11, 1,2,4-trichloro-5-nitrobenzene]: the negative-log IC50 (pIC50) in data set [2] (setting [4]) was below 3.70. For the same compound, the half-maximal cytotoxic concentration (CC50) in data set [3] is above 200 µM.

`O=C(O)c1cc(Cl)ccc1Cl` [Compound C-12, 2,5-dichlorobenzoic acid]: the response vs control in vivo at 100 mg/kg in data set [1] (ip) turned out to be 171%. The same compound displayed a CC50 in data set [3] above 200 µM.

On to `O=[N+]([O-])c1ccc(Cl)c(Cl)c1Cl` [Compound E10, 1,2,3-trichloro-4-nitrobenzene], for which the pIC50 in data set [2] (setting [4]) is below 3.70. The CC50 in data set [3] is 90 µM.

`Nc1c([N+](=O)[O-])cc(Cl)cc1[N+](=O)[O-]` [4-chloro-2,6-dinitroaniline] gave a T/C% in data set [1] (ip) of 87%.

On to `Nc1ccc([N+](=O)[O-])cc1Cl` [2-chloro-4-nitroaniline], for which the response vs control in vivo at 100 mg/kg in data set [1] (ip) came out at 171%.

As to `O=[N+]([O-])c1cc(Cl)ccc1Cl` [Compound E6, 2,5-dichloronitrobenzene], in data set [2], the “SI (Selectivity Index)” value amounted to 2. The negative-log IC50 (pIC50) in data set [2] (setting [4]) was 3.96. In addition, the 50% cytotoxic concentration (CC50) in data set [3] is above 200 µM.
